The results in this text go back to patent publication US10660877B2 (BRISTOL-MYERS SQUIBB COMPANY, priority 2016, dated 2020).

Where two headings read alike, the source gives them in different places.

For one assay, the target named is human TLR7 (Homo sapiens (Human), UniProt Q9NYK1). Briefly: TLR7 inhibition reporter assay (HEK-Blue cells, SEAP reporter, gardiquimod stimulation). The format is cell-based. (In a reporter assay the amount or activity of a reporter protein is the signal.)
The target of the next assay is human TLR8 (Homo sapiens (Human), UniProt Q9NR97). As to the kind of experiment: TLR8 inhibition reporter assay (HEK-Blue cells, SEAP reporter, R848 stimulation).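 Further: compounds tested from 0.05 nM to 50 µM, 22 h at 37 °C, SEAP measured with HEK-Blue Detection, inhibition relative to agonist plus DMSO versus a known inhibitor.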
Chain of human TLR8 (Q9NR97 27-1041): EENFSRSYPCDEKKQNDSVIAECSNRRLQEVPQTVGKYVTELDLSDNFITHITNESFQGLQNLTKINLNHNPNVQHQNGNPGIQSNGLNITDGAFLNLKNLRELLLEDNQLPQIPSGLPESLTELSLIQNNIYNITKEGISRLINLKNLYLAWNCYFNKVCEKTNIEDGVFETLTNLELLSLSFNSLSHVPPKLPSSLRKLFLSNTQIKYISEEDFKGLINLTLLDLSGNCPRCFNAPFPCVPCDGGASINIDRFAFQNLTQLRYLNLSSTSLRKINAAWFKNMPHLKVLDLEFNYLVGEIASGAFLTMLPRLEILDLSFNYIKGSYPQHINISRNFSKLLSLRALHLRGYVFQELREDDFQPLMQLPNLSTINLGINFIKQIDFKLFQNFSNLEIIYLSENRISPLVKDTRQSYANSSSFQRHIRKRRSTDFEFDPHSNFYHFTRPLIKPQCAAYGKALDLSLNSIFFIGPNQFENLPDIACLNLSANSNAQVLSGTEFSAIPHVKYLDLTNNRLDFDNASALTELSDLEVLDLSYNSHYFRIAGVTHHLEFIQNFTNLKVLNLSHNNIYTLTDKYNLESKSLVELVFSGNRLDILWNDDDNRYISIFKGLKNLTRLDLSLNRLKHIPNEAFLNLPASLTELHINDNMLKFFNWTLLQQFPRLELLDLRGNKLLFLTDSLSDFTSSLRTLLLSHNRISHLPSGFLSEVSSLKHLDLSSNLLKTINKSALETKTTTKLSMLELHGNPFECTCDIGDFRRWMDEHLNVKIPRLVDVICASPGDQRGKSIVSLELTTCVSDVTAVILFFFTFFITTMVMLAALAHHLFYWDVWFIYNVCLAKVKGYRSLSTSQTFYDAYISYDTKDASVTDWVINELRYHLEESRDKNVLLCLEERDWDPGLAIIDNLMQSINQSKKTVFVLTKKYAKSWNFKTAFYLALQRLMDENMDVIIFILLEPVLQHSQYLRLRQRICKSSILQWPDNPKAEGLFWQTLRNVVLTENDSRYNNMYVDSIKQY
The next assay has as its target human TLR9 (Homo sapiens (Human), UniProt Q9NR96). Briefly: TLR9 inhibition reporter assay (HEK-Blue cells, SEAP reporter, ODN2006 stimulation).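 Further: compounds tested over 0.05 nM to 50 µM, 22 h incubation, inhibition taken as SEAP signal drop from agonist plus DMSO wells toward a known inhibitor control.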
The mark [1] stands for this setting: HEK-Blue cells overexpressing human TLR7, gardiquimod 7.5 μM.
Setting [2] is: read-out: TLR8 IC50, HEK-Blue cells overexpressing human TLR8, R848 15.9 μM.
Setting [3] is: read-out: TLR9 IC50, HEK-Blue cells overexpressing human TLR9, ODN2006 5 nM.
Where [4] appears, read: HEK-Blue cells, gardiquimod 7.5 μM.
Where [5] appears, read: read-out: TLR8 IC50, HEK-Blue cells, R848 15.9 μM.
[6] abbreviates: read-out: TLR9 IC50, HEK-Blue cells, ODN2006 5 nM.

Chain of human TLR7 (Q9NYK1 27-1049): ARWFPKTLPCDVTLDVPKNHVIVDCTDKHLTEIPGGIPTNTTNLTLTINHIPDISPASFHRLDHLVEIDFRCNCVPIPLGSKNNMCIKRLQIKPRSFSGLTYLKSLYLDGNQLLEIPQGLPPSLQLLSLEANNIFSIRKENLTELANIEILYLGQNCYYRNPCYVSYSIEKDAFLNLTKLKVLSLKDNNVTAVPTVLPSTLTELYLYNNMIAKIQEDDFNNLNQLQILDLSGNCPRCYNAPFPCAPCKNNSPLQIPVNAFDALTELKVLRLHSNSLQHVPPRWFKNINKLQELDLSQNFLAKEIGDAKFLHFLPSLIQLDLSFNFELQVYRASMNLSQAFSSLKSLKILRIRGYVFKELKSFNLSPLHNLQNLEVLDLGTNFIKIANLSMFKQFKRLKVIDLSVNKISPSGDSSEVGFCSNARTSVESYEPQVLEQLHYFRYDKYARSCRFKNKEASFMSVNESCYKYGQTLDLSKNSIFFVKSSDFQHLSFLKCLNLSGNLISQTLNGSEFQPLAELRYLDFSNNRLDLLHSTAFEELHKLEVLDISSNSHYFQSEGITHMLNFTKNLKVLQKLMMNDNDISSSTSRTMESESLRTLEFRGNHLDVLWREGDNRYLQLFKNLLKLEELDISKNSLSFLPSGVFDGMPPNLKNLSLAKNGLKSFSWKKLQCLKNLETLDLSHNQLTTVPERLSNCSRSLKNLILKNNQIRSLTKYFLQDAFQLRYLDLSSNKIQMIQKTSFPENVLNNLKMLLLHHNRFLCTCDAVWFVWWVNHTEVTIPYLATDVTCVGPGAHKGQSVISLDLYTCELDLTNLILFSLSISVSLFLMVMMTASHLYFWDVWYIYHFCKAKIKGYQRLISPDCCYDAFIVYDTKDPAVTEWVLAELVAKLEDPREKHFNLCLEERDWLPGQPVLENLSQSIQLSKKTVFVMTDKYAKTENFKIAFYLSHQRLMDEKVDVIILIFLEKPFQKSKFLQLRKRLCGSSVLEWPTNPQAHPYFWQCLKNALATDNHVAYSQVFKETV
Chain of human TLR9 (Q9NR96 26-1032): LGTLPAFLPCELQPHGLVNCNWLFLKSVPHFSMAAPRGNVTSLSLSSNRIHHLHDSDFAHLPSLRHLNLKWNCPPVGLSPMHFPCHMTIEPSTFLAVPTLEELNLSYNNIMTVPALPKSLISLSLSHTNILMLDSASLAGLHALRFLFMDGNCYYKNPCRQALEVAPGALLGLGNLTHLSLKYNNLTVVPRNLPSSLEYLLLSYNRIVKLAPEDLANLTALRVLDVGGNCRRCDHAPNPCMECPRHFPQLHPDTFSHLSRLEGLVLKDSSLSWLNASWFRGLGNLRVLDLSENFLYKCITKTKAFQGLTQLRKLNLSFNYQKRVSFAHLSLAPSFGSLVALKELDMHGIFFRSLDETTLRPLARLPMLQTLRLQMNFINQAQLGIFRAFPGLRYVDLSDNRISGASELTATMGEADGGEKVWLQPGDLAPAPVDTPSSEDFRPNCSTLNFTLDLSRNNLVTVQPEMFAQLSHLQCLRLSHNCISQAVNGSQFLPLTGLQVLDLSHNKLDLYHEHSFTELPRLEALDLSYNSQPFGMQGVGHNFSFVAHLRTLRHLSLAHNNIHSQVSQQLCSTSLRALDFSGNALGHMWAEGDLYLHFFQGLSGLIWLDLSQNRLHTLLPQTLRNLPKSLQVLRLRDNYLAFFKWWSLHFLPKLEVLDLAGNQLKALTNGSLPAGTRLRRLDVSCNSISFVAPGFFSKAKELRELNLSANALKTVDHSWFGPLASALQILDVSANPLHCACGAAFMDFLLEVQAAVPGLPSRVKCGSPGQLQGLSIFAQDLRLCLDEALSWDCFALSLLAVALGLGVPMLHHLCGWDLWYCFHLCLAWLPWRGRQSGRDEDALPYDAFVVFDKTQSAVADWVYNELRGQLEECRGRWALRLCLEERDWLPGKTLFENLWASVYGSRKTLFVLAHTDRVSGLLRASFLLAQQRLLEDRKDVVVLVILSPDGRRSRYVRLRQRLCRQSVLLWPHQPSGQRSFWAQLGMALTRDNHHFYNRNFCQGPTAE

In the case of `CCCN(CCO)C(=O)CN1CCC(c2ccc3[nH]c(-c4cc(C)nc(C)c4)c(C(C)C)c3c2)CC1` [Example 295, 2-(4-(2-(2,6-dimethylpyridin-4-yl)-3-isopropyl-1H-indol-5-yl)piperidin-1-yl)-N-(2-hydroxyethyl)-N-propylacetamide], the IC50 (commonly the concentration that gives 50% inhibition) was determined as 30 nM at human TLR7 (setting [1]), 142 nM on human TLR8 (setting [2]) and 3170 nM on human TLR9 (setting [3]).

As for `Cc1cc(-c2[nH]c3ccc(C4CCN(C=O)CC4)cc3c2C(C)C)cc(C)n1` [Example 862, 4-(2-(2,6-dimethylpyridin-4-yl)-3-isopropyl-1H-indol-5-yl)piperidine-1-carbaldehyde], the IC50 against human TLR7 (setting [4]) was 5.1 nM; at human TLR8 (setting [5]), 120 nM; at human TLR9 (setting [6]), over 50000 nM.

Consider `Cc1cc(-c2[nH]c3ccc(C4CCN(CCO)CC4)cc3c2C(C)C)cc(C)n1` [Example 329, 2-(4-(2-(2,6-dimethylpyridin-4-yl)-3-isopropyl-1H-indol-5-yl)piperidin-1-yl)ethan-1-ol], for which the values for the half-maximal inhibitory concentration (IC50) against human TLR7 (setting [1]), on human TLR8 (setting [2]) and at human TLR9 (setting [3]) were 2.1 nM, 2.8 nM and 437 nM, respectively.

As for `Cc1cc(-c2[nH]c3ccc(C4CCN(CC(=O)NCC(C)C)CC4)cc3c2C(C)C)cc(C)n1` [Example 221, 2-(4-(2-(2,6-dimethylpyridin-4-yl)-3-isopropyl-1H-indol-5-yl)piperidin-1-yl)-N-isobutylacetamide], the IC50 against human TLR7 (setting [1]) was determined as 6.8 nM; at human TLR8 (setting [2]), 17.2 nM; at human TLR9 (setting [3]) it was 2010 nM.

For the compound `CC(=O)NCC(=O)N1CCC(c2ccc3[nH]c(-c4cc(C)nc(C)c4)c(C(C)C)c3c2)CC1` [Example 166, N-(2-(4-(2-(2,6-dimethylpyridin-4-yl)-3-isopropyl-1H-indol-5-yl)piperidin-1-yl)-2-oxoethyl)acetamide], the IC50 against human TLR7 (setting [1]) was 0.5 nM; at human TLR8 (setting [2]), 79.8 nM; on human TLR9 (setting [3]), over 50000 nM.

As for `Cc1cc(-c2[nH]c3ccc(C4CCN(C(=O)Cc5csc(C)n5)CC4)cc3c2C(C)C)cc(C)n1`, the IC50 on human TLR7 (setting [1]) was determined as 16.4 nM; on human TLR8 (setting [2]) it was 124 nM; on human TLR9 (setting [3]), 28800 nM.

For the compound `Cc1cc(-c2[nH]c3ccc(C4CCN(CC(=O)N5C[C@H](C(F)(F)F)C[C@@H]5CO)CC4)cc3c2C(C)C)cc(C)n1` [Example 301, 2-(4-(2-(2,6-dimethylpyridin-4-yl)-3-isopropyl-1H-indol-5-yl)piperidin-1-yl)-1-((2R,4R)-2-(hydroxymethyl)-4-(trifluoromethyl)pyrrolidin-1-yl)ethan-1-one], the figures for the IC50 on human TLR7 (setting [1]), at human TLR8 (setting [2]) and on human TLR9 (setting [3]) were 19.6 nM, 118 nM and 1580 nM, respectively.

Turning to `Cc1cc(-c2[nH]c3ccc(C4CCN(C(=O)CN5CC6(COC6)C5)CC4)cc3c2C(C)C)cc(C)n1` [Example 364, 1-(4-(2-(2,6-dimethylpyridin-4-yl)-3-isopropyl-1H-indol-5-yl)piperidin-1-yl)-2-(2-oxa-6-azaspiro[3.3]heptan-6-yl)ethan-1-one], the IC50 on human TLR7 (setting [1]) came out at 4.4 nM; at human TLR8 (setting [2]) it was 13.4 nM; at human TLR9 (setting [3]), 584 nM.

For `Cc1ncc(CN2CCC(c3ccc4[nH]c(-c5ccnc(N)c5)c(C(C)C)c4c3)CC2)[nH]1` [Example 818, 4-(3-isopropyl-5-(1-((2-methyl-1H-imidazol-5-yl)methyl)piperidin-4-yl)-1H-indol-2-yl)pyridin-2-amine], the half-inhibitory concentration (IC50) stood at 283 nM on human TLR7 (setting [4]), 53.3 nM at human TLR8 (setting [5]) and 230 nM at human TLR9 (setting [6]).

On to `Cc1cc(-c2[nH]c3ccc(C4CCN(C(=O)C(C)(C)O)CC4)cc3c2C(C)C)cc(C)n1` [Example 173, 1-(4-(2-(2,6-dimethylpyridin-4-yl)-3-isopropyl-1H-indol-5-yl)piperidin-1-yl)-2-hydroxy-2-methylpropan-1-one], for which the values for the IC50 on human TLR7 (setting [1]), at human TLR8 (setting [2]) and on human TLR9 (setting [3]) were 6.2 nM, 88.3 nM and 43300 nM, respectively.

With `Cc1cc(-c2[nH]c3ccc(C4CCN(CC5CC5)CC4)cc3c2C(C)C)cc(C)n1` [Example 474, 5-(1-(cyclopropylmethyl)piperidin-4-yl)-2-(2,6-dimethylpyridin-4-yl)-3-isopropyl-1H-indole], the IC50 on human TLR7 (setting [1]) is 2.5 nM; on human TLR8 (setting [2]), 3.2 nM; at human TLR9 (setting [3]), 506 nM.

For `COC(C)CN1CCC(c2ccc3[nH]c(-c4cc(C)nc(C)c4)c(C(C)C)c3c2)CC1` (stereo not drawn) [Example 332, 2-(2,6-dimethylpyridin-4-yl)-3-isopropyl-5-(1-(2-methoxypropyl)piperidin-4-yl)-1H-indole], the figures for the IC50 against human TLR7 (setting [1]), at human TLR8 (setting [2]) and on human TLR9 (setting [3]) were 5.2 nM, 4.5 nM and 396 nM, respectively.

`Cc1cc(-c2[nH]c3ccc(C4CCN(C5CCOC(C)(C)C5)CC4)cc3c2C(C)C)ccn1` (stereo not drawn) [Example 719, 5-(1-(2,2-dimethyltetrahydro-2H-pyran-4-yl)piperidin-4-yl)-3-isopropyl-2-(2-methylpyridin-4-yl)-1H-indole]: the IC50 at human TLR7 (setting [1]) is 23.9 nM; on human TLR8 (setting [2]), 5.2 nM; at human TLR9 (setting [3]), 638 nM.

As to `Cc1cc(-c2[nH]c3ccc(C4CCN(CC(=O)N5CCC(O)CC5)CC4)cc3c2C(C)C)cc(C)n1` [Example 230, 2-(4-(2-(2,6-dimethylpyridin-4-yl)-3-isopropyl-1H-indol-5-yl)piperidin-1-yl)-1-(4-hydroxypiperidin-1-yl)ethan-1-one], the IC50 on human TLR7 (setting [1]) was determined as 4 nM; on human TLR8 (setting [2]), 17 nM; on human TLR9 (setting [3]) it was 74 nM.

Turning to `Cc1cc(-c2[nH]c3ccc(C4CCNCC4)cc3c2C2CC2)ccn1` [Example 88, 3-cyclopropyl-2-(2-methylpyridin-4-yl)-5-(piperidin-4-yl)-1H-indole], the values for the IC50 on human TLR7 (setting [1]), at human TLR8 (setting [2]) and on human TLR9 (setting [3]) were 11.9 nM, 7 nM and 71 nM, respectively.

Regarding `Cc1cc(-c2[nH]c3ccc(C4CCN(CC(=O)N5CCC[C@H]5CO)CC4)cc3c2C(C)C)cc(C)n1` [Example 274, (S)-2-(4-(2-(2,6-dimethylpyridin-4-yl)-3-isopropyl-1H-indol-5-yl)piperidin-1-yl)-1-(2-(hydroxymethyl)pyrrolidin-1-yl)ethan-1-one], the IC50 worked out at 1.9 nM against human TLR7 (setting [1]), 9.1 nM on human TLR8 (setting [2]) and 261 nM on human TLR9 (setting [3]).

`Cc1cc(-c2[nH]c3ccc(C4CCN(C(=O)CN(C)C)CC4)cc3c2C(C)C)cc(C)n1` [Example 98, 2-(dimethylamino)-1-(4-(2-(2,6-dimethylpyridin-4-yl)-3-isopropyl-1H-indol-5-yl)piperidin-1-yl)ethan-1-one]: the IC50 was determined as 1.6 nM against human TLR7 (setting [1]), 8 nM on human TLR8 (setting [2]) and 579 nM at human TLR9 (setting [3]).

`CC(C)c1c(-c2ccnc(N(C)C)c2)[nH]c2ccc(C3CCNCC3)cc12` [Example 24, 4-(3-isopropyl-5-(piperidin-4-yl)-1H-indol-2-yl)-N,N-dimethylpyridin-2-amine]: the IC50 at human TLR7 (setting [1]) turned out to be 1480 nM; on human TLR8 (setting [2]), 704 nM; at human TLR9 (setting [3]), 1690 nM.

On to `CCc1c(-c2ccnc(C)c2)[nH]c2ccc(C3CCN(C(=O)[C@@H]4CCCCN4)CC3)cc12` [Example 628, (S)-(4-(3-ethyl-2-(2-methylpyridin-4-yl)-1H-indol-5-yl)piperidin-1-yl)(piperidin-2-yl)methanone], for which the IC50 was found to be 39.2 nM against human TLR7 (setting [1]); 18.3 nM at human TLR8 (TLR8 IC50, HEK-Blue cells overexpressing human TLR8, R848 15.9 μM); 363 nM against human TLR9 (TLR9 IC50, HEK-Blue cells overexpressing human TLR9, ODN2006 5 nM).

Turning to `COc1cc(-c2[nH]c3ccc(C4CCN(C5CCN(C(C)C)CC5)CC4)cc3c2C(C)C)ccn1` [Example 797, 3-isopropyl-5-(1′-isopropyl-[1,4′-bipiperidin]-4-yl)-2-(2-methoxypyridin-4-yl)-1H-indole], the IC50 at human TLR7 (setting [1]) turned out to be 141 nM; at human TLR8 (setting [2]), 23.1 nM; on human TLR9 (setting [3]), 596 nM.

For `Cc1cc(-c2[nH]c3ccc(C4CCN(C(=O)C(=O)NCC5CCNCC5)CC4)cc3c2C(C)C)cc(C)n1` [Example 861, 2-(4-(2-(2,6-dimethylpyridin-4-yl)-3-isopropyl-1H-indol-5-yl)piperidin-1-yl)-2-oxo-N-(piperidin-4-ylmethyl)acetamide], the IC50 at human TLR7 (setting [4]) amounted to 13.5 nM; at human TLR8 (setting [5]), 59 nM; at human TLR9 (setting [6]), 3420 nM.

For the compound `CCc1c(-c2ccnc(N)c2O)[nH]c2ccc(C3CCNCC3)cc12` [Example 71, 2-amino-4-(3-ethyl-5-(piperidin-4-yl)-1H-indol-2-yl)pyridin-3-ol], the values for the IC50 against human TLR7 (setting [1]), on human TLR8 (setting [2]) and at human TLR9 (setting [3]) were 7200 nM, 5640 nM and 2830 nM, respectively.

As for `CCc1c(-c2ccnc(C)c2)[nH]c2ccc(C3CCN(CCC(F)(F)F)CC3)cc12` [Example 863, 3-ethyl-2-(2-methylpyridin-4-yl)-5-(1-(3,3,3-trifluoropropyl)piperidin-4-yl)-1H-indole], the values for the IC50 at human TLR7 (setting [4]), at human TLR8 (setting [5]) and at human TLR9 (setting [6]) were 469 nM, 53 nM and 2450 nM, respectively.

For the compound `Cc1cc(-c2[nH]c3ccc(C4CCN(C(=O)CN5CCCC5=O)CC4)cc3c2C(C)C)cc(C)n1` [Example 154, 1-(2-(4-(2-(2,6-dimethylpyridin-4-yl)-3-isopropyl-1H-indol-5-yl)piperidin-1-yl)-2-oxoethyl)pyrrolidin-2-one], the IC50 against human TLR7 (setting [1]) is 5.9 nM; on human TLR8 (setting [2]) it was 29.5 nM; at human TLR9 (setting [3]), over 50000 nM.

Consider `CNCC(=O)N1CCC(c2ccc3[nH]c(-c4cc(C)ncc4F)c(C(C)C)c3c2)CC1` [Example 621, 1-(4-(2-(5-fluoro-2-methylpyridin-4-yl)-3-isopropyl-1H-indol-5-yl)piperidin-1-yl)-2-(methylamino)ethan-1-one], for which the values for the 50% inhibitory concentration (IC50) against human TLR7 (setting [1]), on human TLR8 (setting [2]) and on human TLR9 (setting [3]) were 2.4 nM, 5 nM and 1590 nM, respectively.
